Assays:
mdx mice = assay: Centralized nuclei (%) in muscles of mdx mice; format: in vivo, mouse (C57BL/10ScSn-Dmd^mdx/J); settings: T16
Text: Tibialis anterior (TA), gastrocnemius (GAS), DIA, and heart were collected from mice maintained under isoflurane anesthesia and sacrificed by cervical dislocation. These muscles were collected from C57BL/10J wt and mdx (5 mice/group) at the end of treatments and from DBA/2J wt and D2.B10 mice (5 mice/group) at two different time points to be examined by a pathologist (for more details see Additional Table 1). Due to the results obtained by the functional tests, muscles from only some treatment groups were analyzed in both DMD models (see Additional Table 1). All the collected muscles were fixed in 10% buffered formalin solution (Bio-optica, Milan, Italy) at + 4 °C for at least 48 h. After fixation, muscular samples were transversely trimmed, caged, and paraffin embedded overnight with an Automated Vacuum Tissue Processor Floor (ETP, Histo-Line Laboratories) and included in paraffin blocks. Serial transverse cross-sections (4 μm thick) were cut with a microtome (Leica RM 2255), collected onto uncoated glass slides, and stained using a standard protocol for hematoxylin and eosin (Mayer hematoxylin & Aqueous G Eosin 1%, Bio-Optica) and Sirius Red staining (Direct Red 80, Sigma-Aldrich). For the image analysis and quantitation, hematoxylin and eosin- and Sirius Red-stained slides were examined with an Olympus BX51 light microscope. From each sample, 1 to 3 random microphotographs at the magnification of × 4 and × 10 (TA, GAS and heart) or × 20 (DIA) were collected using Image-Pro Plus system. The digital images were processed by a pathologist using ImageJ software (U.S. National Institutes of Health, Bethesda, MD, USA). To quantify CSA and centralized nuclei (%) on hematoxylin and eosin-stained sections, one hundred myofibers were manually measured for each muscle/mouse using a tablet pen (Wacom Intruos) and analyzed by the ImageJ software after a linear calibration of 150 μm. The fibrotic area, corresponding to the area stained in red, was compared to the total area of the tissue section, and the results were expressed as percentage fibrosis. The % of fibrosis of muscles in the different treatment groups was expressed by averaging the three values obtained from each muscle.

plasma miRNA of mdx mice = assay: Whole-genome plasma miRNA expression profiling (small RNA sequencing) in mdx mice; format: in vivo, mouse (C57BL/10ScSn-Dmd^mdx/J); settings: Givinostat 37.5 mg/kg vs vehicle
Procedure: Blood samples were taken from the retro-orbital plexus of mice maintained under isoflurane anesthesia. Blood was placed in tubes containing 50 μL (for 1 mL of total blood) of EDTA ([…]) and then it was centrifuged at 13,300 rpm at + 4 °C for 10 min. Plasma was separated (400–500 μL) and immediately frozen in dry ice and stored at − 80 °C until analysis.
Thirteen mouse plasma samples (naive wt, n = 3; naive mdx, n = 3; vehicle, n = 4; Givinostat 37.5 mg/kg, n = 3) were delivered to Biogazelle in dry ice.
RNA was isolated using the miRNeasy Serum/Plasma Kit (Qiagen) following the manufacturer’s instructions.
Libraries for small RNA sequencing were prepared using the NEBNext small RNA library prep kit (New England Biolabs) according to the manufacturer’s instructions. […] Finally, the resulting small RNA pools were concentrated via ethanol precipitation and quantified using the Qubit 2.0 fluorometer (Thermo Fisher Scientific) prior to sequencing with read length of 75 bp on a NextSeq 500 sequencer (Illumina).
Sequencing reads were filtered based on stringent read quality control. After adapter trimming with Trimmomatic, reads were collapsed and mapped to the reference genome (GRCm38) using Bowtie. Reads up to 25 nucleotides are mapped with no mismatches, while longer reads (mainly from RNA species other than miRNAs) are mapped allowing a maximum of 2 mismatches. […]

For `CCN(CC)Cc1ccc2cc(COC(=O)Nc3ccc(C(=O)NO)cc3)ccc2c1` [Givinostat], the “Nuclear centralization in DIA” value (mdx mice; 1 mg/kg) was 57 ± 2.9%, the “Nuclear centralization in GAS” value (mdx mice; 1 mg/kg) was 67.6 ± 2.4% and the “Nuclear centralization in TA” value (mdx mice; 1 mg/kg) was 71 ± 1.6%. For the same compound, the “Nuclear centralization in DIA” value (mdx mice; 10 mg/kg) was 61.4 ± 3.5%, the “Nuclear centralization in GAS” value (mdx mice; 10 mg/kg) was 58 ± 3% and the “Nuclear centralization in TA” value (mdx mice; 10 mg/kg) was 73.2 ± 3.7%. The “Nuclear centralization in DIA” value (mdx mice; 37.5 mg/kg) was 41.4 ± 4.5%, the “Nuclear centralization in GAS” value (mdx mice; 37.5 mg/kg) was 61.3 ± 3.8% and the “Nuclear centralization in TA” value (mdx mice; 37.5 mg/kg) was 60.8 ± 2.5%. The “miR-92b-3p in plasma, FC” value (plasma miRNA of mdx mice; T16, significant upregulation) was 2.130 and the “miR-449a-5p in plasma, FC” value (plasma miRNA of mdx mice; T16, significantly upregulated) was 4.388.

— publication PMC8296708, “The pan HDAC inhibitor Givinostat improves muscle function and histological parameters in two Duchenne muscular dystrophy murine models expressing different haplotypes of the LTBP4 gene” (Skeletal Muscle, 2021)
